Laboratory results as given in patent US20110130380A1, “Heteroaryl Kinase Inhibitors” (priority 2009, published 2011).

Each compound was assayed against Cdk9/cyclinT1 (Homo sapiens, UniProt P50750) (assay: Cdk9/cyclinT1 IMAP Protocol (fluorescence polarization kinase assay)). Conditions: Cdk9_cyclinT1_IC50, Table V; generated using one of the two Cdk9/cyclinT1 assays (IMAP or Alpha Screen), not stated which; ATP 6 uM.
Cdk9/cyclinT1, sequence (P50750 whole entry): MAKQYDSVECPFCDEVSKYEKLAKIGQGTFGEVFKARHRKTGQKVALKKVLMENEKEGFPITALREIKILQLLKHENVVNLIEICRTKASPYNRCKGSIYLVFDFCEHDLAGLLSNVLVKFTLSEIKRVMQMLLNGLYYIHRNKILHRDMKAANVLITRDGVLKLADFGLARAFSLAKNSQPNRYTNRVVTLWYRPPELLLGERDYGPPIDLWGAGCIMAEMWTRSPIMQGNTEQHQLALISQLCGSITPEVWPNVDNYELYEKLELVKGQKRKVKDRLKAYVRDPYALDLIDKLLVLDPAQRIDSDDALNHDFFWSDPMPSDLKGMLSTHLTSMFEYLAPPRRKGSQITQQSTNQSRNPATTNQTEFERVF
Cdk9/cyclinT1, sequence (O60563 whole entry partner): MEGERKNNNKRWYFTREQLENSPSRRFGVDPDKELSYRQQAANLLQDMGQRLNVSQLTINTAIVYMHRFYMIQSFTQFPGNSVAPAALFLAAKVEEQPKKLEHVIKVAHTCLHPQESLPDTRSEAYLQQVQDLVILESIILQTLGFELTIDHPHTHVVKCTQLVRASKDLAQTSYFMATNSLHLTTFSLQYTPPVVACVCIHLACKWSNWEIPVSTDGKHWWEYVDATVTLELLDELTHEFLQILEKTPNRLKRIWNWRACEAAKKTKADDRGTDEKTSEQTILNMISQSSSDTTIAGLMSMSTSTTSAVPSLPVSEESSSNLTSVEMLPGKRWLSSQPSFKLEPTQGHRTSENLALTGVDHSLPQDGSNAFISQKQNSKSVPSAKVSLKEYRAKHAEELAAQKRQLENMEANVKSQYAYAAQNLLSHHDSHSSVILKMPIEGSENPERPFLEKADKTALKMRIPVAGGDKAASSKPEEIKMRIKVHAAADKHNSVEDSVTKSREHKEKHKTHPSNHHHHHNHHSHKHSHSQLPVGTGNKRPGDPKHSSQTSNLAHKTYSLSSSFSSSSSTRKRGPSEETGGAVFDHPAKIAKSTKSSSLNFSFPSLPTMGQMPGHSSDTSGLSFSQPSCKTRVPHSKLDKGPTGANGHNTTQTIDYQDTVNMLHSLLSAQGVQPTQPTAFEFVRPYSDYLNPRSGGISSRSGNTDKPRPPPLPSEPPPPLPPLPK

Compared with `O=C(Nc1cc(-c2cccc(NCC3CCOCC3)n2)c(Cl)cn1)c1cccnc1` [Example 71, N-{5′-Chloro-6-[(tetrahydro-pyran-4-ylmethyl)-amino]-[2,4′]bipyridinyl-2′-yl}-nicotinamide], `CC(=O)Nc1cc(-c2cccc(NCC3CCOCC3)n2)c(Cl)cn1` [Example 69, N-{5′-Chloro-6-[(tetrahydro-pyran-4-ylmethyl)-amino]-[2,4′]bipyridinyl-2′-yl}-acetamide] is 2.5-fold higher in IC50: 56 nM for the first, 139 nM for the second.

`CC(C)C(=O)Nc1cc(-c2nc(NCC3CCOCC3)ccc2Cl)c(Cl)cn1` [Example 86, N-{3,5′-Dichloro-6-[(tetrahydro-pyran-4-ylmethyl)-amino]-[2,4′]bipyridinyl-2′-yl}-isobutyramide] and `N[C@H]1CC[C@@H](C(=O)Nc2cc(-c3nc(NCC4CCOCC4)ccc3Cl)c(Cl)cn2)C1` [Example 100, (1R,3S)-3-Amino-cyclopentanecarboxylic acid {3,5′-dichloro-6-[(tetrahydro-pyran-4-ylmethyl)-amino]-[2,4′]bipyridinyl-2′-yl}-amide] cannot be ordered by IC50: under 8 nM for the first, under 8 nM for the second.

First: COC[C@@H]1C[C@@H](C(=O)Nc2cc(-c3ccc(F)c(NCC4(OC)CCOCC4)n3)c(Cl)cn2)CN1 [Example 253, (3R,5S)-5-Methoxymethyl-pyrrolidine-3-carboxylic acid {5′-chloro-5-fluoro-6-[(4-methoxy-tetrahydro-pyran-4-ylmethyl)-amino]-[2,4′]bipyridinyl-2′-yl}-amide]
Second: COC[C@H]1C[C@@H](C(=O)Nc2cc(-c3cccc(NCC4(C)CCOCC4)n3)c(Cl)cn2)CN1 [Example 246, (3R,5R)-5-Methoxymethyl-pyrrolidine-3-carboxylic acid {5′-chloro-6-[(4-methyl-tetrahydro-pyran-4-ylmethyl)-amino]-[2,4′]bipyridinyl-2′-yl}-amide]
The IC50 of the first is 6-fold lower: 1 nM for the first, 6 nM for the second.

Compared with `COC(=O)N1CCC[C@H](C(=O)Nc2cc(-c3nc(N[C@@H](C)C4CCOCC4)ccc3Cl)c(Cl)cn2)C1` [Example 154, (S)-3-{3,5′-Dichloro-6-[(S)-1-(tetrahydro-pyran-4-yl)-ethylamino]-[2,4′]bipyridinyl-2′-ylcarbamoyl}-piperidine-1-carboxylic acid methyl ester], `CN1CCCCC(C(=O)Nc2cc(-c3nc(NCC4CCOCC4)ccc3Cl)c(Cl)cn2)C1` (stereo not shown) [Example 200, 1-Methyl-azepane-3-carboxylic acid {3,5′-dichloro-6-[(tetrahydro-pyran-4-ylmethyl)-amino]-[2,4′]bipyridinyl-2′-yl}-amide] is 2.1-fold higher in IC50: 15 nM for the first, 31 nM for the second. The first is the more potent here.

Compared with `O=C(Nc1cc(-c2cccc(NCC3CCOCC3)n2)c(Cl)cn1)[C@@H]1CCCN(CC(F)(F)F)C1` [Example 11, (R)-1-(2,2,2-Trifluoro-ethyl)-piperidine-3-carboxylic acid {5′-chloro-6-[(tetrahydro-pyran-4-ylmethyl)-amino]-[2,4′]bipyridinyl-2′-yl}-amide], `O=C(Nc1cc(-c2cccc(NCC3CCOCC3)n2)c(Cl)cn1)C1CCOCC1` [Example 63, Tetrahydro-pyran-4-carboxylic acid {5′-chloro-6-[(tetrahydro-pyran-4-ylmethyl)-amino]-[2,4′]bipyridinyl-2′-yl}-amide] is 29-fold lower in IC50: 770 nM for the first, 27 nM for the second.

Going from `O=C(Nc1cc(-c2cccc(NCC3CCOCC3)n2)c(Cl)cn1)[C@@H]1CNC[C@H](F)C1` [Example 176, (3S,5R)-5-Fluoro-piperidine-3-carboxylic acid {5′-chloro-6-[(tetrahydro-pyran-4-ylmethyl)-amino]-[2,4′]bipyridinyl-2′-yl}-amide] to `C[C@@H]1CNC[C@H](C(=O)Nc2cc(-c3cccc(NCC4CCOCC4)n3)c(Cl)cn2)C1` (single isomer, unassigned) [Example 128], the IC50 falls from 23 nM to 1 nM (23-fold). The second is the more potent here.

First: O=C(Nc1cc(-c2cccc(NCC3CCOCC3)n2)c(Cl)cn1)[C@H]1CNC[C@H]1O [Example 121, (3S,4S)-4-hydroxy-pyrrolidine-3-carboxylic acid {5′-chloro-6-[(tetrahydro-pyran-4-ylmethyl)-amino]-[2,4′]bipyridinyl-2′-yl}-amide]
Second: CC[C@@H]1CC[C@@H](C(=O)Nc2cc(-c3cccc(NCC4CCOCC4)n3)c(Cl)cn2)CN1 (single isomer, unassigned) [Example 240]
The IC50 of the first is 130-fold higher: 134 nM for the first, 1 nM for the second. The second is the more potent here.

`O=C(Nc1cc(-c2cccc(NCC3CCS(=O)(=O)CC3)n2)c(Cl)cn1)[C@@H]1CCCNC1` [Example 12, (R)-piperidine-3-carboxylic acid {5′-chloro-6-[(1′,1′-dioxo-hexahydro-1-thiopyran-4-ylmethyl)-amino]-[2,4′]bipyridinyl-2′-yl}-amide] and `O=C(Nc1cc(-c2cccc(NCC3CCCCC3)n2)c(Cl)cn1)[C@@H]1CCCNC1` [Example 17, (R)-Piperidine-3-carboxylic acid [5′-chloro-6-(cyclohexylmethyl-amino)-[2,4′]bipyridinyl-2′-yl]-amide] cannot be ordered by IC50: under 8 nM for the first, under 8 nM for the second.

Going from `O=C(Nc1cc(-c2cccc(NCc3cncc(F)c3)n2)c(Cl)cn1)[C@@H]1CCCNC1` [Example 41, (R)-Piperidine-3-carboxylic acid {5′-chloro-6-[(5-fluoro-pyridin-3-ylmethyl)-amino]-[2,4′]bipyridinyl-2′-yl}-amide] to `CNc1cccc(-c2cc(NC(=O)[C@@H]3CCCNC3)ncc2Cl)n1` [Example 21, (R)-Piperidine-3-carboxylic acid (5′-chloro-6-methylamino-[2,4′]bipyridinyl-2′-yl)-amide], the IC50 rises from under 8 nM to 76 nM. The first is the more potent here.

`O=C(Nc1cc(-c2cccc(NCCN3CCCC3=O)n2)c(Cl)cn1)[C@@H]1CCCNC1` [Example 32, (R)-Piperidine-3-carboxylic acid {5′-chloro-6-[2-(2-oxo-pyrrolidin-1-yl)-ethylamino]-[2,4′]bipyridinyl-2′-yl}-amide] and `COCCCNc1cccc(-c2cc(NC(=O)[C@@H]3CCCNC3)ncc2Cl)n1` [Example 28, (R)-Piperidine-3-carboxylic acid [5′-chloro-6-(3-methoxy-propylamino)-[2,4′]bipyridinyl-2′-yl]-amide] are within 1.5-fold of each other in IC50: 19 nM for the first, 21 nM for the second.

Compared with `O=C(Nc1cc(-c2cccc(NCc3cccc(F)c3)n2)c(Cl)cn1)C1CCCCC1` [Example 2, Cyclohexanecarboxylic acid [5′-chloro-6-(3-fluoro-benzylamino)-[2,4′]bipyridinyl-2′-yl]-amide], `O=C(Nc1cc(-c2cccc(NCC3COCCO3)n2)c(Cl)cn1)[C@@H]1CCCNC1` (stereo partly drawn) [Example 24, (R)-Piperidine-3-carboxylic acid {5′-chloro-6-[([1,4]dioxan-2-ylmethyl)-amino]-[2,4′]bipyridinyl-2′-yl}-amide] is lower in IC50: 134 nM for the first, under 8 nM for the second. The second is the more potent here.

`COC1(CNc2ccc(Cl)c(-c3cc(NC(=O)[C@@H]4CCCNC4)ncc3Cl)n2)CCOCC1` [Example 192, (R)-Piperidine-3-carboxylic acid {3,5′-dichloro-6-[(4-methoxy-tetrahydro-pyran-4-ylmethyl)-amino]-[2,4′]bipyridinyl-2′-yl}-amide] and `O=C(Nc1cc(-c2nc(NCC3CCOCC3)ccc2Cl)c(Cl)cn1)[C@@H]1CCCNC1` [Example 75] cannot be ordered by IC50: 1 nM for the first, under 8 nM for the second.

`CC1(CNc2cccc(-c3cc(NC(=O)[C@@H]4CCCNC4)ncc3Cl)n2)CCOCC1` [Example 207, (R)-Piperidine-3-carboxylic acid {5′-chloro-6-[(4-methyl-tetrahydro-pyran-4-ylmethyl)-amino]-[2,4′]bipyridinyl-2′-yl}-amide] and `N#CC1(CNc2cccc(-c3cc(NC(=O)[C@@H]4CCCNC4)ncc3Cl)n2)CCOCC1` [Example 238, (R)-Piperidine-3-carboxylic acid {5′-chloro-6-[(4-cyano-tetrahydro-pyran-4-ylmethyl)-amino]-[2,4′]bipyridinyl-2′-yl}-amide] are the same in IC50: 1 nM for the first, 1 nM for the second.

Going from `COC[C@H]1CC[C@H](C(=O)Nc2cc(-c3cccc(NCC4CCOCC4)n3)c(Cl)cn2)CN1` (single isomer, unassigned) [Example 236] to `CC[C@@H]1CC[C@@H](C(=O)Nc2cc(-c3cccc(NCC4CCOCC4)n3)ccn2)CN1` (racemic) [Example 230, (3R,6R)-/(3S,6S)-6-Ethyl-piperidine-3-carboxylic acid {6-[(tetrahydro-pyran-4-ylmethyl)-amino]-[2,4′]bipyridinyl-2′-yl}-amide], the IC50 falls from 7 nM to 2 nM (3.5-fold).

Going from `CC(C)(C)C(=O)Nc1cc(-c2cccc(NCC3CCOCC3)n2)c(Cl)cn1` [Example 72, N-{5′-Chloro-6-[(tetrahydro-pyran-4-ylmethyl)-amino]-[2,4′]bipyridinyl-2′-yl}-2,2-dimethyl-propionamide] to `CC1(C)CC(CNc2cccc(-c3cc(NC(=O)C4CNCCOC4)ncc3Cl)n2)CCO1` (stereo not shown) [Example 202, [1,4]Oxazepane-6-carboxylic acid {5′-chloro-6-[(2,2-dimethyl-tetrahydro-pyran-4-ylmethyl)-amino]-[2,4′]bipyridinyl-2′-yl}-amide], the IC50 falls from 40 nM to 2 nM (20-fold).

Going from `CN(C)c1cccc(-c2cc(NC(=O)[C@@H]3CCCNC3)ncc2Cl)n1` [Example 36, (R)-Piperidine-3-carboxylic acid (5′-chloro-6-dimethylamino-[2,4′]bipyridinyl-2′-yl)-amide] to `O=C(Nc1cc(-c2cccc(N3CCCC3)n2)c(Cl)cn1)[C@@H]1CCCNC1` [Example 44, (R)-Piperidine-3-carboxylic acid (5′-chloro-6-pyrrolidin-1-yl-[2,4′]bipyridinyl-2′-yl)-amide], the IC50 rises from 102 nM to 181 nM (1.8-fold).

Same assay, conditions: Cdk9_cyclinT1_IC50, generated using one of the two Cdk9/cyclinT1 assays (IMAP or Alpha Screen), not specified per value; ATP 6 uM

In order of falling IC50:
1. CC(C)(C)OC(=O)N1CCC[C@@H](C(=O)Nc2cc(-c3cnc(Cl)c(NCC4CCOCC4)c3)c(Cl)cn2)C1 [Example 303, (R)-3-{6,5′-Dichloro-5-[(tetrahydro-pyran-4-ylmethyl)-amino]-[3,4′]bipyridinyl-2′-ylcarbamoyl}-piperidine-1-carboxylic acid tert-butyl ester]  25 nM
2. O=C(Nc1cc(-c2cc(NCC3CCOCC3)cnc2Cl)c(Cl)cn1)[C@H]1CNCCO1 [Example 314, (R)-Morpholine-2-carboxylic acid {2,5′-dichloro-5-[(tetrahydro-pyran-4-ylmethyl)-amino]-[3,4′]bipyridinyl-2′-yl}-amide]  3 nM
